# Results: PMC10216263, “Favorable Preclinical Pharmacological Profile of a Novel Antimalarial Pyrrolizidinylmethyl Derivative of 4-amino-7-chloroquinoline with Potent In Vitro and In Vivo Activities” (Biomolecules, 2023)
# Read-outs that look alike come from different tables or passages of the source.
# Key:
# [1] = system: Salmonella typhimurium TA100; test: Bacterial Reverse Mutation Assay; conditions: Positive Control 1.25 µg/plate, TA 100, with metabolic activation
# Protocol: (§8) using the preincubation method (30 min, 37°C) with and without phenobarbital-5,6-benzoflavone induced
# (§9) MG3 was dissolved in distilled water (H2O) at
# (§10) the maximum concentration of 40 mg/mL and tested in a preliminary range-finding test in all strains of
# (§11) metabolic activation to determine the toxicity of the compound.
# [2] = system: Salmonella typhimurium TA98; test: Bacterial Reverse Mutation Assay; conditions: Positive Control 1.25 g/plate, TA 98, with metabolic activation
# Protocol: as §8, §9, §10, §11
# [3] = system: Escherichia coli WP2 uvrA; test: Bacterial Reverse Mutation Assay; conditions: Positive Control 5 µg/plate, with metabolic activation
# Protocol: as §8, §9, §10, §11
# [4] = cited from earlier work
# P. falciparum K1 (CQ-R) [5] = test: In vitro antimalarial activity, [3H]-hypoxanthine incorporation (LSHTM); assay type: cell-based; conditions: Plasmodium falciparum
# [6] = system: P. falciparum V1-S (CQ-R); test: as above; assay type: cell-based; conditions: Plasmodium falciparum, read-out: P. falciparum IC50 nM, V1-S (CQ-R)
# [7] = system: P. falciparum TM90C2A (CQ-R); test: as above; assay type: cell-based; conditions: Plasmodium falciparum, read-out: P. falciparum IC50 nM, TM90C2A (CQ-R)
# [8] = system: P. falciparum FCR3 (CQ-R); test: as above; assay type: cell-based; conditions: Plasmodium falciparum
# [9] = system: P. falciparum field isolates; test: Chemosensitivity assay on field isolates; assay type: cell-based; conditions: Plasmodium falciparum
# Protocol: (§1) The 10 P. vivax and 10 P. falciparum isolates used in this study were obtained from Mae Sod District, Tak Province, Thailand. […] Isolates were collected in 5 mL lithium-heparinized tubes and sent to the laboratory within 5–6 h.
# P. vivax field isolates = test: Chemosensitivity assay on field isolates; assay type: cell-based; conditions: Plasmodium vivax, read-out: P. vivax IC50 nM, Field Isolates
# Protocol: as §1
# P. berghei ANKA [10] = test: Oral curative activity against P. berghei ANKA; assay type: in vivo, P. berghei in mice; conditions: for Average survival (days) after infection: individual values in brackets
# P. falciparum 3D7 (CQ-S) = test: In vitro antimalarial activity, [3H]-hypoxanthine incorporation (LSHTM); assay type: cell-based; conditions: Plasmodium falciparum, 3D7, read-out: P. falciparum IC50 nM, 3D7 (CQ-S)
# [11] = system: P. falciparum IPC5202 (ARM-R); test: microbe, parasite or virus in culture; assay type: cell-based; conditions: Plasmodium falciparum, 72 h
# Protocol: The strains D10 and 3D7 (CQ-Sensitive), and V1-S (CQ, pyrimethamine and cycloguanil resistant), K1 (CQ and PYR resistant), W2 and FCR3 (CQ-Resistant), TM90C2A (CQ, MQ, PYR and ATQ resistant) and IPC 5202 (MR4-1240, artemisinin-resistant, K13 mutation, and R539T) of Pf were cultured in vitro as described by Trager and Jensen with minor modifications. Briefly, parasites were maintained at 5% hematocrit (human type A-positive red blood cells) in RPMI 1640 (EuroClone, S.p.A. Milan, Italy) medium with the addition of 10% heat inactivate human serum or 1% AlbuMax (In vitrogen, Milan, Italy), 20 mM Hepes and 2 mM glutamine (Euroclone), at 37 °C in a standard gas mixture consisting of 1–3% O2, 5% CO2, and 92–94% N2.
# Compounds were dissolved in either water or DMSO and then diluted with medium to achieve the required concentrations (final non-toxic DMSO concentration <1%). Asynchronous cultures of Pf with parasitaemia of 1–1.5% and 1% final hematocrit were aliquoted into 96-well flat-bottom microplates (Corning, Glendale, AZ, USA) with serial dilutions of test compounds and incubated for 72 h at 37 °C. Parasite growth was determined spectrophotometrically (OD650) by measuring the activity of the parasite lactate dehydrogenase (pLDH) according to a modified version of the method of Makler in control and drug-treated cultures.
# P. falciparum K1 (CQ-R) [12] = test: In vitro combination study (isobologram, ∑FIC); assay type: cell-based
# [13] = system: Pf-3D7 gametocytes >95% Stage I-III; test: Gametocyte luciferase assay (3D7elo1-pfs16-CBG99); assay type: cell-based, P. falciparum; conditions: Plasmodium falciparum
# Protocol: (§2) In vitro activity of MG3 against P falciparum sexual gametocyte stages […]
# (§3) luminescent transgenic 3D7 strain (3D7elo1-pfs16-CBG99) at two different stages (I-III and V) using the […]
# (§4) Briefly, 100 µL of culture medium were removed from each well to increase hematocrit; 70 µL of resuspended culture were transferred to a black 96-well plate; 70 µL of D-luciferin (1 mM in citrate buffer 0.1 M, pH 5.5) were added. Luminescence measurements were performed after 10 min with 500 ms integration time using a Synergy4-BioTek reader.
# (§5) (1 picture or pasted object on this page, not shown here)
# [14] = system: Pf-3D7 gametocytes >95% Stage V; test: Gametocyte luciferase assay (3D7elo1-pfs16-CBG99); assay type: cell-based, P. falciparum; conditions: Plasmodium falciparum, 3D7, read-out: Pf-3D7 gametocytes IC50 (nM), >95% Stage V
# Protocol: as §2, §3, §4, §5
# P. falciparum D10 (CQ-S) = system: P. falciparum D10 (CQ-S); design: method as in PMID 18538567; conditions: 72 h incubation, pLDH method, mean of 3 experiments; cited from earlier work
# P. falciparum W2 (CQ-R) = system: P. falciparum W2 (CQ-R); design: method as in PMID 18538567; conditions: 72 h incubation, pLDH method, mean of 3 experiments; cited from earlier work
# P. berghei ANKA [15] = system: P. berghei ANKA; design: method as in PMID 19284751; conditions: oral 4-day test; cited from earlier work
# P. yoelii NS = system: P. yoelii NS; design: method as in PMID 19284751; conditions: oral 4-day test; cited from earlier work
# dog hepatocytes = test: Metabolic profiling in hepatocytes; assay type: in vitro ADME; conditions: 1 h, 10 µM
# Protocol: (§6) For metabolite profiling, MG3.2HCl (10 µM) was incubated with mouse, rat, dog, monkey, and human hepatocytes (300,000 cells/mL for the mouse and 1 × 10^6 cells/mL for the other species) in Leibovitz L-15 medium, at 37 °C. Incubations were performed in a 12-well plate under shaking. Aliquots of the incubation samples, together with a control in medium alone, were taken at t = 0 and 60 min; the metabolism was stopped by the addition of an equal volume of chilled ACN and the samples were centrifuged at 1100 rpm for 20 min. The supernatant was stored at −20 °C until analysis. The analyses were performed using an HPLC system (Agilent) online with a photodiode array (PDA) detector (Agilent) coupled to a Mass Spectrometer Q-TOF 2 (Waters), ESI positive, following the method reported in Table 1.
# (§7) The software utilized for searching the accurate masses of possible metabolites was Metabolynx, version 4.1 (Waters Corporation, Milford, MA, USA), with a mass window of 40 mDa. Samples were then re-run in MS/MS mode by selecting the masses of possible metabolites found. The collision energy used to obtain MS/MS data was 25 eV. The proposed identity of metabolites was based on their accurate mass (using LockSpray correction), with an accuracy of +/−5 mDa. MS/MS analyses were performed to verify that peaks were drug-related and to obtain structural information from the fragment ions formed. The structures of some metabolites are proposed. The approximate relative amounts of parent and metabolites were determined from the absolute areas taken from a selected ion chromatogram at the metabolite masses with a mass window of 0.04 Da.
# human hepatocytes = test: Metabolic profiling in hepatocytes; assay type: in vitro ADME; conditions: human, 60 min, 10 µM
# Protocol: as §6, §7
# monkey hepatocytes = test: Metabolic profiling in hepatocytes; assay type: in vitro ADME; conditions: 1 h, 10 µM
# Protocol: as §6, §7
# mouse hepatocytes = test: Metabolic profiling in hepatocytes; assay type: in vitro ADME; conditions: 1 h, 10 µM
# Protocol: as §6, §7
# rat hepatocytes = test: Metabolic profiling in hepatocytes; assay type: in vitro ADME; conditions: rat, 60 min, 10 µM
# Protocol: as §6, §7
# P. falciparum K1 (CQ-R) [16] = system: P. falciparum K1 (CQ-R); design: method as in PMID 17466277; conditions: literature value; read-out: IC50 against K1 strain; cited from earlier work
# [17] = 72 h, [3H]-hypoxanthine incorporation, mean of 3 experiments
# [18] = K1, read-out: P. falciparum IC50 nM, K1 (CQ-R)
# [19] = FCR3, read-out: P. falciparum IC50 nM, FCR3 (CQ-R)
structure (smiles),measurement,setting,value
"Nc1ccc2cc3ccccc3cc2c1 [2-aminoanthracene, reference compound]",fold increase value (ratio treated/solvent revertant numbers),[1]; I° Exp.,5.1
same,fold increase value (ratio treated/solvent revertant numbers),[1]; Range finding,7.7
same,fold increase value (ratio treated/solvent revertant numbers),[2]; I° Exp.,37.2
same,fold increase value (ratio treated/solvent revertant numbers),[2]; Range finding,26.5
same,fold increase value (ratio treated/solvent revertant numbers),[3]; I° Exp.,13.0
same,fold increase value (ratio treated/solvent revertant numbers),[3]; Range finding,8.2
CCN(CC)CCCNc1ccnc2cc(Cl)ccc12 [AQ13],absolute bioavailability,[4]; in vivo,70%
"C[C@H]1[C@H](OC(=O)CCC(=O)O)O[C@@H]2O[C@@]3(C)CC[C@H]4[C@H](C)CC[C@@H]1[C@@]24OO3 [ASN, artesunate]",IC50,"P. falciparum K1 (CQ-R) [5]; K1, 72 h, [3H]-hypoxanthine incorporation, mean of 3 experiments, read-out: P. falciparum IC50 nM, K1 (CQ-R)",2.6 nM
same,IC50,[6]; [17],2.7 nM
same,IC50,[7]; [17],2.6 nM
same,IC50,"[8]; FCR3, 72 h, [3H]-hypoxanthine incorporation, mean of 3 experiments, read-out: P. falciparum IC50 nM, FCR3 (CQ-R)",2.6 nM
same,IC50,"[9]; mean of 10 field isolates, Thai Burmese Border, read-out: P. falciparum IC50 nM, Field Isolates",4.2 nM
same,IC50,"P. vivax field isolates; mean of 10 field isolates, Thai Burmese Border",2.3 nM
same,% Suppression of parasitaemia (on day 4 post infection),P. berghei ANKA [10]; oral dose 3 x 30 mg/kg,99.09%
same,Average survival (days) after infection,P. berghei ANKA [10]; oral dose 3 x 30 mg/kg,"8 (7, 8, 8, 9, 9) days"
"CCN(CC)Cc1cc(Nc2ccnc3cc(Cl)ccc23)ccc1O [Amodiaquine, amodiaquine]",% Suppression of parasitaemia (on day 4 post infection),P. berghei ANKA [10]; oral dose 3 x 10 mg/kg,100%
same,Average survival (days) after infection,P. berghei ANKA [10]; oral dose 3 x 10 mg/kg,"11 (9, 11, 11, 12, 13) days"
"CCN(CC)CCCC(C)Nc1ccnc2cc(Cl)ccc12 (stereo not drawn) [CQ, chloroquine]",IC50,P. falciparum 3D7 (CQ-S),12.1 nM
same,IC50,P. falciparum K1 (CQ-R) [5]; [18],708 nM
same,IC50,[6],774 nM
same,IC50,[7],145 nM
same,IC50,[8]; [19],194 nM
same,IC50,"[11]; read-out: P. falciparum IC50 nM, IPC5202 (ARM-R)",163 nM
same,IC50,"[9]; read-out: P. falciparum IC50 nM, Field Isolates, mean of 10 field isolates, Thai Burmese Border",252 nM
same,IC50,P. vivax field isolates,86.6 nM
same,Mean ∑FIC50 (95% CI),"P. falciparum K1 (CQ-R) [12]; in combination with ASN, K1, IC50 level",1.67 (1.44 – 1.90)
same,Mean ∑FIC50 (95% CI),"P. falciparum K1 (CQ-R) [12]; in combination with DHA, K1, IC50 level",1.27 (1.16 – 1.38)
same,Mean ∑FIC50 (95% CI),"P. falciparum K1 (CQ-R) [12]; in combination with RKA-182, K1, IC50 level",1.19 (0.77 – 1.60)
same,IC50,"[13]; 3D7, read-out: Pf-3D7 gametocytes IC50 (nM), >95% Stage I-III",104 ± 34.7 nM
same,IC50,[14],11700 ± 4120 nM
same,% Suppression of parasitaemia (on day 4 post infection),P. berghei ANKA [10]; oral dose 3 x 30 mg/kg,99.84%
same,Average survival (days) after infection,P. berghei ANKA [10]; oral dose 3 x 30 mg/kg,"13 (12, 12, 13, 13, 13) days"
same,IC50,P. falciparum D10 (CQ-S),16.5 nM
same,IC50,P. falciparum W2 (CQ-R),294 nM
"C[C@H]1[C@@H](O)O[C@@H]2O[C@@]3(C)CC[C@H]4[C@H](C)CC[C@@H]1[C@@]24OO3 [DHA, dihydroartemisinin]",IC50,P. falciparum 3D7 (CQ-S),3 nM
same,IC50,P. falciparum K1 (CQ-R) [5]; [18],1.4 nM
same,IC50,[6],1.8 nM
same,IC50,[8]; [19],1.23 nM
same,IC50,"[11]; read-out: P. falciparum IC50 nM, IPC5202 (ARM-R), 72 h incubation, pLDH method",2.2 nM
same,IC50,P. falciparum D10 (CQ-S),3.9 nM
same,IC50,P. falciparum W2 (CQ-R),2 nM
"CC(C)(C)NCc1cc(Nc2ccnc3cc(Cl)ccc23)ccc1F [FAQ4, 4′-Fluoro-N-tert-butylamodiaquine]",ED50 (95% CI) Mean,P. berghei ANKA [15],5.30 (4.10–6.80) mg/kg
same,ED90 (95% CI) Mean,P. berghei ANKA [15],12.40 (10.7–14.4) mg/kg
same,ED50 (95% CI) Mean,P. yoelii NS,7.70 (6.70–8.90) mg/kg
same,ED90 (95% CI) Mean,P. yoelii NS,10.60 (9.40–11.80) mg/kg
OC(Nc1ccnc2cc(Cl)ccc12)C12CCCN1CCC2 (stereo not drawn) [M2],% of Total Drug Related Material,dog hepatocytes,27%
same,% of Total Drug Related Material,human hepatocytes,1%
same,% of Total Drug Related Material,monkey hepatocytes,1%
same,% of Total Drug Related Material,mouse hepatocytes,3%
same,% of Total Drug Related Material,rat hepatocytes,6%
"CN(C)c1ccc2nc3ccc(=[N+](C)C)cc-3sc2c1 [Methylene Blue, reference compound]",IC50,"[13]; 3D7, read-out: Pf-3D7 gametocytes IC50 (nM), >95% Stage I-III, luciferase readout, 3D7elo1-pfs16-CBG99",59.6 ± 21.7 nM
same,IC50,[14],145 ± 42.6 nM
"CC(C)(C)NCc1ccc(Nc2ccnc3cc(Cl)ccc23)cc1O [NTBI, N-tert-butyl isoquine]",absolute bioavailability,[4]; literature value,68%
Clc1ccc2c(N3CCN(CCCN4CCN(c5ccnc6cc(Cl)ccc56)CC4)CC3)ccnc2c1 [piperaquine],IC50,P. falciparum K1 (CQ-R) [16],49 nM
